Results published in patent US20100081631A1, “METHODS AND COMPOSITIONS FOR TREATING GASTROINTENSTIAL DISORDERS” (priority 2006, published 2010).
Blank lines part the entries; values can stand above or below the compound they belong to.

Assays:
[1] = system: PI3k/Akt pathway (Akt phosphorylation) in IEC-18 cells; assay: Akt phosphorylation Western blot in IEC-18 cell lysates; type: cell-based, rat; settings: 24 hours; for Akt phosphorylation: 5 μM SC-560, 10 μM celecoxib or 10 μM indomethacin
Procedure: Rat intestinal epithelial cells (IEC-18 cells) are immortalized normal epithelial cells purchased from the American Type Culture Collection (ATCC). For these experiments, IEC-18 cells were cultured in high glucose Delbecco's Modified Eagle's Medium (DMEM) at 37° C. under 5% CO2 and incubated for 24 hours with either a) 5 μM of the COX-1 inhibitor SC-560 (purchased from Sigma-Aldrich, St. Louis, Mo.), 10 μM of the COX-2 inhibitor celecoxib, or 10 μM of the COX-½ inhibitor indomethacin. Drugs were provided in a 0.1% dimethylsulfoxide (DMSO) vehicle.
The PI3k/Akt pathway is monitored using the following general assay procedure. Following incubation cell lysates are collected with lysis buffer containing phosphatase and proteinase inhibitors. The supernanats are collected and protein concentrations are measured. Then SDS(sodium dodecyl sulfate) sample buffers are made to make sure final protein concentration is equal in each sample and boiled for minutes at 100° C. Then the samples are loaded on to a 4%-12% pre-made SDS-PAGE (polyacrylamide gel electrophoresis) and the gel is developed under electrophoresis. When the samples reach the bottom of the gel, the gel is removed from the electrophoresis equipment and transferred to a nitrocellulose membrane and the membrane blocked with milk. The membrane is incubated with a primary antibody selective for either a) total Akt or b) phosphrylated Akt overnight at 4° C. A secondary antibody having a conjugated horseradish peroxidase (HRP) moiety is used to bind the constant regions of the primary antibodies. The membrane is washed under conditions favoring selective antibody binding. Finally, the HRP is detected using a enzymatically initiated chemiluminescent substrate such as Super Signal® ELISA Pico Substrates, available from Thermo Fisher Scientific.

C57BL/6 mice [2] = assay: Acetic acid-induced gastric ulcer model in mice; type: in vivo
Source text: Gastric ulcers were produced in C57BL/6 mice by using 40% acetic acid as follows. Animals were anesthetized. The abdomen of each animal was surgically opened, and the stomach exposed. A 3 mm curette was placed onto the anterior surface of each stomach. A solution of 40% acetic acid was placed inside the curette. The curette prevents damage to surrounding tissue. The acetic acid treatment causes damage to blood vessels of the stomach, producing chemical death to the mucous layer.
On the third day following induction of ulceration, the animals were given various treatments by oral gavage. First, vehicle (4% DMSO-corn oil) or a low dose (3 mg/kg/day) of indomethacin in 4% DMSO-corn oil was used. This dose of indomethacin has been reported not to induce gross lesions on the stomach, although it can inhibit the production of endogenous prostglandin PGE2.
On day 7 blood was withdrawn for hematology analysis from sacrificed animals, and subjected to automated testing for standard hematological parameters. Ulcer areas (defined as the regions of the stomach not covered by stomach mucosal epithelial cells) were measured by dissection microscopy for macroscopic analysis; additionally, the widest section of each ulcer sample was measured and observed as the size index under microscopy. The stomachs were processed for pathological analysis by dissection and section through the widest part of the ulcer. Sections were stained using hematoxylin & eosin.
Mice were then treated with 10 nM Compound 7 or the vehicle under otherwise identical conditions. In this experiment the vehicle was 4% DMSO in corn oil in a volume of 0.1 ml. The mice were sacrificed and the stomachs examined on either the 7th day or the 11th day following ulceration. […] Under dissection microscopy, the areas of the ulcers in mice treated with Compound 7 were 60% and 32% of the control on days 7 and 11, respectively. […] (FIG. 4B).

C57BL/6 mice [3] = assay: Acetic acid-induced gastric ulcer model in mice; type: in vivo; remark: listed apart in the source
[4] = biological target: T1, human EP4 prostaglandin receptor (Homo sapiens, UniProt P35408); assay: Activity test measuring changes in intracellular cAMP in HEK-EBNA cells; type: cell-based; settings: HEK-EBNA cells expressing human EP4, read-out: in vitro EC50 (concentration at 50% of maximal efficacy)
T1 construct: expressed in transfected cells; host or cells: HEK-EBNA cells
Procedure: The dosage of the prostaglandin EP4 agonist component employed in accordance with the present invention varies over a relatively wide range and depends on factors well known in the medicinal arts including, but not limited to: the weight of the individual to whom the agonist component is administered, the general health status/condition of such individual, the disease/condition sought to be treated/prevented by such administration, the severity of such disease/condition in such individual, the potency of the specific EP4 receptor agonist component being administered, the sensitivity of such individual to the specific agonist component being administered, the mode of administration, the age of such individual, the sex of such individual, the pregnancy status of such individual, the other ongoing drug therapies being administered to such individual and the like factors. The compound (Z)-7-{(1R,4S,5R)-5-[(E)-5-(3-chloro-benzo[b]thiophene-2-yl)-3-hydroxy-pent-1-enyl]-4-hydroxy-3,3-dimethyl-2-oxo-cyclopentyl}-hept-5-enoic acid has an in vitro EC50 (concentration at 50% of maximal efficacy) of between 0.03 and 0.1 nM in both the FLIPR® Ca^++ flux test and in an alternate activity test measuring changes in the intracellular concentration of cAMP in HEK-EBNA cells expressing the human EP4 prostaglandin receptor.

IEC-18 cells = assay: Doxorubicin/celecoxib-induced apoptosis of IEC-18 cells by flow cytometry; type: cell-based, rat; settings: 48 hours
Procedure: IEC-18 cells were cultured in high glucose DMEM containing 10% fetal bovine serum (FBS), 1% penicillin, 1% streptomycin, and 50 unit insulin essentially as indicated in Example 101 for 48 hours in the presence of the 0.05 μg/ml chemotherapy agent doxorubicin to induce apoptosis. In the presence of 10 μM celecoxib (which inhibits endogenous prostaglandin PGE2 expression), apoptosis of doxorubicin-treated IEC-18 cells proceeds within 48 hours at such very low concentrations of doxorubicin. Finally, the cells collected by trypsin were subjected to flow cytometry analysis for identification of the percentage of cells in different stages of the cell cycle.
Cultured cells were prepared for flow cytometry by trypsinization and centrifugation. The cells were then washed with cold phosphate buffered saline solution (PBS), then fixed with cold 70% ethanol overnight. The cells were then again washed with PBS and stained with propidium iodide, a nucleic acid intercalating dye, in the presence of RNase for 30 minutes at room temperature. The cells were then sorted using the buffer provided by Becton-Dickenson, the maker of the flow cytometry equipment.
Additionally, using CellQuest® software (Becton-Dickenson) a quantification of the percent of apoptosis occurring in IEC-18 cells after 48 hours' incubation was performed. […]

[5] = biological target: T1, human EP4 prostaglandin receptor; assay: FLIPR Ca++ flux test; type: cell-based; settings: cells expressing human EP4, read-out: in vitro EC50 (concentration at 50% of maximal efficacy)
Procedure: HEK-293 (EBNA) cells, stably expressing one type or subtype of recombinant human prostaglandin receptors (prostaglandin receptors expressed: hDP/Gqs5; hEP1; hEP2/Ggs5; hEP3A/Gqi5; hEP4/Ggs5; hFP; hIP; hTP), are cultured in 100 mm culture dishes in high-glucose DMEM medium containing 10% fetal bovine serum, 2 mM 1-glutamine, 250 μg/ml geneticin (G418) and 200 μg/ml hygromycin B as selection markers, and 100 units/ml penicillin G, 100 μg/ml streptomycin and 0.25 μg/ml amphotericin B.
Transfectant cells are seeded at a density of 5×10^4 cells per well in Biocoat®. Poly-D-lysine-coated black-wall, clear-bottom 96-well plates (Becton-Dickinson) and allowed to attach overnight in an incubator at 37° C. Cells are then washed two times with HBSS-HEPES buffer (Hanks Balanced Salt Solution without bicarbonate and phenol red, 20 mM HEPES, pH 7.4) using a Denley Cellwash plate washer (Labsystems). […]
Cells are excited with an Argon laser at 488 nm, and emission measured through a 510-570 nm bandwidth emission filter (FLIPR.™., Molecular Devices, Sunnyvale, Calif.). […] The peak increase in fluorescence intensity is recorded for each well. […] The peak fluorescence change in each drug-containing well is then expressed relative to the controls. […]

[6] = indomethacin 3 mg/kg/day oral gavage, day 7, vs vehicle
[7] = 0.1 mg/kg/d Compound 7 + 3 mg/kg/d indomethacin vs control mice

T1 sequence (P35408 whole entry): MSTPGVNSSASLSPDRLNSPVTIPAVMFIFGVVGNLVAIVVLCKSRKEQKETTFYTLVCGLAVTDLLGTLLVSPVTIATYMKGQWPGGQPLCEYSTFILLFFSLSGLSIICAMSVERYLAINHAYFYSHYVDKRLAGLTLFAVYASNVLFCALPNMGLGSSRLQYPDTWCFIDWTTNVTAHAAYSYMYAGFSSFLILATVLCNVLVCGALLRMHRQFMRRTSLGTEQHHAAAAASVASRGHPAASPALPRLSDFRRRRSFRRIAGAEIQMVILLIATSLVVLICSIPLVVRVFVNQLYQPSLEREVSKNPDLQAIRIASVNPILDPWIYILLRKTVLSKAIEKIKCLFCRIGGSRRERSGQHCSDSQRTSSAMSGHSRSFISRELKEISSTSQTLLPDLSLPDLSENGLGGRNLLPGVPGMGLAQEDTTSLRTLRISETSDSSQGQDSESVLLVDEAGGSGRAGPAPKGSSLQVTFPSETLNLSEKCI

Compound: COc1ccc2c(c1)c(CC(=O)O)c(C)n2C(=O)c1ccc(Cl)cc1 [indomethacin, reference compound]
Akt phosphorylation [1]: inhibited phosphorylation of Akt to a greater extent that did SC-560 or celecoxib | spontaneous healing of gastric ulcers (gross and microscopic ulcer size) (C57BL/6 mice [2]; indomethacin 3 mg/kg/day oral gavage from day 3, day 7, vs vehicle): delayed the spontaneous healing of gastric ulcers | blood loss at ulcer sites (C57BL/6 mice [2]; [6]): exacerbate blood loss at ulcer sites | inflammation (lymphocytes in the blood) (C57BL/6 mice [2]; [6]): exacerbated inflammation

EC50 [4]: 30 to 100 pM | EC50 [5]: 30 to 100 pM
Compound: CC1(C)C(=O)[C@H](C/C=C\CCCC(=O)O)[C@@H](/C=C/C(O)CCc2sc3ccccc3c2Cl)[C@@H]1O (stereo partly drawn) [Compound 7, (Z)-7-{(1R,4S,5R)-5-[(E)-5-(3-chloro-benzo[b]thiophene-2-yl)-3-hydroxy-pent-1-enyl]-4-hydroxy-3,3-dimethyl-2-oxo-cyclopentyl}-hept-5-enoic acid]
hematocrit (HCT) (C57BL/6 mice [3]; [7]): significantly greater | hemoglobin (HGB) (C57BL/6 mice [3]; [7]): significantly greater | number of red blood cells (RBC) (C57BL/6 mice [3]; 0.1 mg/kg/d Compound 7 + 3 mg/kg/d indomethacin vs control mice, n=20): significantly greater | blood loss (hematology) (C57BL/6 mice [3]; 0.1 mg/kg/d Compound 7 + 3 mg/kg/d indomethacin vs indomethacin alone): significantly less blood loss | percent apoptosis (IEC-18 cells; 10 nM Compound 7 added to 0.05 μg/ml doxorubicin + 10 μM celecoxib): approximately 5% | Akt phosphorylation on co-incubation with indomethacin ([1]; 10 nM Compound 7 + 10 μM indomethacin vs indomethacin alone): maintained Akt phosphorylation at higher levels | ulcer sizes vs vehicle (C57BL/6 mice [2]; 10 nM Compound 7, vehicle 4% DMSO in corn oil, day 7 or 11): significantly smaller ulcer sizes | areas of the ulcers under dissection microscopy (C57BL/6 mice [2]; Compound 7, day 7): 60 % of the control | areas of the ulcers under dissection microscopy (C57BL/6 mice [2]; Compound 7, day 11): 32 % of the control | inflammatory cell infiltrations and necrotic tissue in granulation tissue (C57BL/6 mice [2]; Compound 7 vs control group): significantly less | gross and microscopic morphologies of the ulcer tissue (C57BL/6 mice [2]; Compound 7 vs vehicle, day 7): stimulates healing of ulcer and facilitate the removal of necrosis tissue

Compound: COc1cccc2c1C(=O)c1c(O)c3c(c(O)c1C2=O)C[C@@](O)(C(=O)CO)C[C@@H]3O[C@H]1C[C@H](N)[C@H](O)[C@H](C)O1 [doxorubicin, reference compound]
percent apoptosis (IEC-18 cells; 0.05 μg/ml doxorubicin with 10 μM celecoxib): about 13%

Compound: COc1ccc(-n2nc(C(F)(F)F)cc2-c2ccc(Cl)cc2)cc1 [SC-560]
Akt phosphorylation [1]: inhibited Akt phosphorylation
